Test results reported in paper PMC6349869, “The palladacycle complex AJ-5 induces apoptotic cell death while reducing autophagic flux in rhabdomyosarcoma cells” (Cell Death Discovery, 2019).

Key:
Assay type in all cases: cell-based, human
[1] = test system: RH30 cells; assay: MTT cell viability assay, RH30; settings: RH30 (aRMS), 48 h
Experimental: (§1) RH30 human aRMS cells (kindly provided by Associate Professor Judith Davie, Southern Illinois University), AX-OH-1 human aRMS and FL-OH-1 human eRMS cells (kindly provided by Professor Stefan Bath, University of Cape Town) were cultured in Roswell Park Memorial Institute Medium (RPMI)-1640 (Sigma Aldrich, Missouri, USA). […] Cell morphology was monitored using an Olympus CKX41 inverted microscope (MSAC Ltd, UK) and imaged with an EVOS™ XL AMEX1000 Core Imaging System (Thermo Fisher Scientific, Massachusetts, USA).
(§2) Cells were seeded in 96-well plates and treated the next day with a range of AJ-5 concentrations (0.1–1.0 μM) or vehicle ([…]) for 48 h. Cell viability was measured using the 3-(4,5-dimethylthiazol-2-yl)-2,5-diphenyl-trazolium bromide (MTT) assay (11465007001; Sigma Aldrich) according to the manufacturer’s instructions. Mean cell viability was calculated as a percentage of the mean vehicle control. At least three independent experiments in quadruplicate were performed from which the half maximal inhibitory concentration (IC50) was determined using GraphPad Prism version 6.0 (GraphPad Software, California, USA). The selectivity index (SI) was determined by dividing the IC50 of a normal cell line by the IC50 of a cancer cell line.

[2] = test system: RD cells; assay: MTT cell viability assay, RD; settings: RD (eRMS), 48 h
Experimental: as §1, §2

[3] = test system: FL-OH-1 cells; assay: MTT cell viability assay, FL-OH-1; settings: FL-OH-1 (eRMS), 48 h
Experimental: as §1, §2

[4] = test system: aRMS and eRMS cells; assay: MTT cell viability assay, RMS cell lines (summary statements); settings: alveolar and embryonal RMS cells
Experimental: as §1, §2

[5] = test system: SW872 cells; assay: MTT cell viability assay, SW872 liposarcoma; settings: 48 h
[6] = test system: SW982 cells; assay: MTT cell viability assay, SW982 synovial sarcoma; settings: 48 h
Experimental: as §1, §2

[7] = test system: MG-63 cells; assay: MTT cell viability assay, MG-63 osteosarcoma; settings: 48 h
[8] = test system: RMS cells (RH30, AX-OH-1, RD, FL-OH-1); assay: Scratch motility assay, RMS cells; settings: 24 h pre-treatment at IC50, all RMS cells tested
Experimental: Cells were seeded in 6-well plates and treated with IC50 AJ-5 and vehicle for 24 h. Cells were then collected, counted and replated to achieve 100% confluency in a 24-well plate. The following day a sterile 2 µL pipette tip was used to make a vertical scratch in the cell monolayer of each well and the cells treated with 10 µM mitomycin C (M4287; Sigma Aldrich) to inhibit proliferation. Cells were imaged at 0, 3, 6, 9, 12 and 24 h post wound formation and ImageJ v1.50i[58] was used to calculate the area of the scratch. The total areas migrated was determined by subtracting the area for a specific time point from the area measured at 0h.

[9] = test system: RD cells; assay: Single-cell autophagosome flux analyses; settings: IC50 48 h
Experimental: The autophagosome flux was calculated from the rate of autophagosome accumulation as previously described. Briefly, this was determined after the complete inhibition of fusion between autophagosomes and lysosomes using 400 nM bafilomycin A1 (B0025; LKT Laboratories Inc., Minnesota, USA).
Cells were transfected with a GFP-LC3 construct using Lipofectamine 3000 (L3000001; Thermo Fisher Scientific) according to the manufacturer’s instructions and maintained for 2 days in order to achieve high levels of GFP-LC3 expression.
Autophagosome, autolysosome and lysosome pool size was assessed by supplementing the culture media with 25 nM LysoTracker Red (L7528; Thermo Fisher Scientific) 2 h prior to image acquisition. An LSM 780 confocal with ELYRA S.1 Superresolution platform (Carl Zeiss) was used for image acquisition. The eight-chamber dish was placed in a heated chamber maintained at 5% CO2 that encased the microscope objective. An LCI Plan-Apochromat ×63/1.4 oil DIC M27 objective was used and samples were excited with an Argon multiline laser 25 mW at 488 and 514 nm with appropriate beam splitters and GaAsP detector 32+2 PMT. Multiple z layers were acquired with […] step width. Laser power and electron gain were set to achieve an optimal signal to noise ratio without causing photo-toxicity. […]

Compound: CC(C)c1cccc(C(C)C)c1[N+]1=Cc2cccc[c]2[Pd-2]1([Cl])[P+](CC[P+](c1ccccc1)(c1ccccc1)[Pd-2]1([Cl])[c]2ccccc2C=[N+]1c1c(C(C)C)cccc1C(C)C)(c1ccccc1)c1ccccc1 (stereo not drawn) [AJ-5]
- IC50 [1]: ≤ 200 nM
- IC50 [2]: ≤ 200 nM
- IC50 [3]: ≤ 200 nM
- IC50 [4]: ≤ 200 nM
- IC50 [5]: < 300 nM
- IC50 [6]: < 300 nM
- IC50 [7]: < 300 nM
- Migratory ability (area migrated) [8]: reduced the migratory ability
- Autolysosome pool size and autophagosome flux J [9]: significantly decreased
